{
  "source": "patent US4963553A",
  "about": "“4-[(substituted) alkylcarbonyl]-4,5-dihydro- and -4,5,6,7-tetrahydro-7-[(substituted)phenyl]pyrazolo[1,5-a]pyrimidines” (American Cyanamid Co., priority 1988, dated 1990)",
  "key": {"[1]": {"system": "mice (tetrabenazine-induced depression)", "test": "Tetrabenazine-induced depression (antidepressant)", "assay_type": "in vivo, mouse", "design": "key: Active: A compound is considered active if 3 or more of 10 mice are protected against the tetrabenazine-induced effects", "details": "25 mg/kg, oral, 10 mice", "method": "The compounds of the invention are useful as antidepressant agents in warm-blooded animals as verified in the following tests. First, the antidepressant properties of these compounds were tested by measuring their ability to counteract depression induced in animals by the administration of tetrabenazine methanesulfonate. Each test compound was administered orally to 10 mice at a dose of 25 mg/kg of body weight. Thirty minutes later, tetrabenazine methane sulfonate was administered intraperitoneally to each mouse at a dose of 39 mg/kg of body weight, which dose is known to depress markedly the exploratory behavior of normal mice. Thirty minutes later the mice were tested for their exploratory behavior as described by E. Greenblatt and A. C. Osterberg, Toxicology and Applied Pharmacology, 7. 566-578 (1965). A compound is considered active if 3 or more of 10 mice are protected against the tetrabenazine-induced effects."}, "rats": {"system": "rats", "test": "Non-conditioned passive avoidance conflict procedure in rats (anxiolytic)", "assay_type": "in vivo, rat (Wistar strain, male)", "details": "25 mg/kg, oral, 60 minutes", "method": "A test used to assess antianxiety effects is the non-conditioned passive avoidance procedure described by J. R. Vogel, B. Beer and D. E. Clody, \"A Simple and Reliable Conflict Procedure for Testing Antianxiety Agents\", Psychopharmacologia, 21, 1-7 (1971). A conflict situation is induced in rats by a modification of this method.\nGroups of 8 naive, Wistar strain male rats (Royalhart Farms, New Hampton, N.J.), weighing 200-240 g each, were deprived of water for 48 hours. The test compounds were administered in single or graded, oral doses, suspended in 2% starch with 5% polyethylene glycol in distilled water and one drop of polysorbate 80. Control animals received the vehicle alone. At 60 minutes each rat was placed in an individual clear plastic chamber. Tap water was available ad libitum from a nipple located in a black box off the main chamber. A 0.7 milliampere AC shocking current was established between the stainless steel grid floor and the tap. After 20 licks of non-shocked drinking, a 2 second shocking current was administered to the rat. This ratio of 20 licks of non-shocked drinking followed by a 2 second shock was continued for a total of 3 minutes. The number of shocks taken by each rat during the 3 minute interval was recorded and compared to a control group. […]"}, "[2]": {"system": "Brain-Specific Receptors of Rats (3H-benzodiazepine binding)", "test": "Inhibition of the binding of 3H-benzodiazepine to brain-specific receptors of rats", "design": "species or system rat (Wistar strain, whole cortex)", "details": "rat cortex P2 fraction, 3H-diazepam 1.5 nM or 3H-flunitrazepam 1.0 nM", "from_the_text": "Another test utilized for the determination of anxiolytic activity is the measurement of the ability of a test compound to inhibit the binding of tritiated benzodiazepines to brain-specific receptors of mammals. A modification of the method described by R. F. Squires, et al., Nature, 266 (21), 732 (Apr., 1977) and H. Mohler, et al., Science, 198, 849 (1977) was employed. […] The test compounds were solubilized in dimethylformamide, acetic acid, ethanol or hydrochloric acid. […] (1) resuspended in twice the original volume in hypotonic 50 mM Tris.HCl (pH 7.4), or (2) resuspended in one-half the original volume in hypotonic 10 mM Tris.HCl (pH 7.4) and frozen (-20° C.) until time. of use. Frozen P2 preparations were thawed and resuspended in four times the original homogenizing volume at time of assay. […] Incubation for 30 minutes proceeded in ice and was terminated by filtration, under vacuum, through glass fiber filters. The filters were washed twice with 5 ml of ice-cold 50 mM Tris.HCl (pH 7.4) and placed in scintillation vials. After drying at 50°-60° C. for 30 minutes, 10 ml of diluent was added and the radioactivity determined in a scintillation counter. Inhibition of binding was calculated by the difference between total binding and binding in the presence of test compound, divided by the total binding, X 100."}, "[3]": {"system": "Spontaneously Hypertensive Rats", "test": "Hypotensive activity: mean arterial blood pressure in spontaneously hypertensive rats", "assay_type": "in vivo, rat (Okamoto strain, male)", "details": "SHR, gavage, 100 mg/kg or less, two doses 24 h apart, measured at 28 hours; average MABP of rats used 160±1.5 mm; 100 mg/kg", "how_it_was_run": "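Male 16-week-old Okamoto SHR (baseline MAP 160±1.5 mm Hg) dosed by gavage at ≤100 mg/kg in 2% starch with 25 ml/kg 0.9% NaCl load, redosed at 24 h without saline; mean arterial pressure measured at 28 h after first dose.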"}, "[4]": {"system": "mice (anoxic induced amnesia)", "test": "Passive Avoidance Anoxic Induced Amnesia Test", "assay_type": "in vivo, mouse (Swiss-Webster, middle-aged)", "details": "intraperitoneal, vs saline control", "from_the_text": "A useful in vivo test associated with decreased neural function in mammals is the Passive Avoidance Anoxic Induced Amnesia Test. This test is used to determine the attenuation of anoxic induced amnesia in mice treated with drug, as compared to saline treated control animals with no drug. A shock-motivated, single trial, step-through passive avoidance procedure is used. Groups of 25 Swiss-Webster, middle-aged mice (9 months of age) are placed singly in the front chamber of a 2-chamber box and are allowed to voluntarily cross into the rear chamber. As soon as the mouse enters the rear chamber, a door automatically traps the animal and a mild electric shock (0.4 mA for 4 seconds) is delivered to its feet. Following the foot shock, the mice are initially placed in an anoxic environment (0% oxygen) for 12 seconds, which quickly induces unconsciousness. […] All testing is performed 24 hours later, and in all cases the mice appear fully recovered from the previous anoxic/hypoxic treatment. […] Control animals are injected intraperitoneally only with saline at 0.01 ml/g of body weight. The latent period prior to entering the rear chamber is recorded for both training and testing sessions. The greater the memory of being shocked, the greater the reluctance to enter into the rear chamber and the higher will be the latent period prior to re-entry. […]"}, "[5]": {"system": "mice (hypoxic environment)", "test": "Hypoxic survival test", "assay_type": "in vivo, mouse (Royal Hart)", "details": "intraperitoneal, 10% oxygen, 5 minutes", "how_it_was_run": "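Groups of 20 Royal Hart mice (6 weeks old) dosed i.p. with compound in saline at 1–200 mg/kg, 30 minutes before exposure to 10% oxygen/90% carbon dioxide; survival scored after 5 minutes. Saline and physostigmine (0.125 mg/kg i.p.) groups run in parallel.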"}, "[6]": {"molecular_target": "T1, human platelet membranes (3H-imipramine receptor) (Homo sapiens, UniProt P31645)", "T1 construct": "Fresh human platelet concentrates (less than 48 hours old) were obtained from the New York Blood Center; tissue New York Blood Center; host or cells: human blood platelets, membranes", "T1 sequence (P31645 whole entry)": "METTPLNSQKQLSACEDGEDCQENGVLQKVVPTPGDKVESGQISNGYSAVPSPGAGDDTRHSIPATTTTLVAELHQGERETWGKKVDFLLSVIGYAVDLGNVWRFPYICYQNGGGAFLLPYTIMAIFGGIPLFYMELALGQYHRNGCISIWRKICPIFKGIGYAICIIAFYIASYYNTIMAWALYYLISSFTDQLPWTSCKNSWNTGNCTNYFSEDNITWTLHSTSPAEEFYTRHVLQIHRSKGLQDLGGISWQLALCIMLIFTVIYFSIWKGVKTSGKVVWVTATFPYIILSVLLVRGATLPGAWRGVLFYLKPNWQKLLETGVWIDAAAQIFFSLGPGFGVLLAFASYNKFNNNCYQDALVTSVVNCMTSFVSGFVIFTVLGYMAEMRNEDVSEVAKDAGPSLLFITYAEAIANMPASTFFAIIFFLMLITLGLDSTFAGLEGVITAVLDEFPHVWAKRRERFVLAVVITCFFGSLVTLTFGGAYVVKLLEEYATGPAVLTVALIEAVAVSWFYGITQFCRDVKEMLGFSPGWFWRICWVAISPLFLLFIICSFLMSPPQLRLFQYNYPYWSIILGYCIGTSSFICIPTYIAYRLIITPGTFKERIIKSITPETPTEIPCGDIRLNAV", "test": "3H-imipramine binding to human platelet membranes", "method": "The activity of the compounds of the invention as antidepressant agents was further verified# in the following test which measures the ability of a test compound to inhibit 3H-imipramine binding to human platelet membranes.\nPlatelet membranes were obtained using the procedure described by Wennogle, L. et al., Pharmac. Biochem. Behav., 15. 975 (1981). Fresh human platelet concentrates (less than 48 hours old) were obtained from the New York Blood Center. These concentrates were prepared in a citrate-dextrose anticoagulant using standard techniques. Platelets were washed twice by centrifugation (2500×G, 10 minutes) in 50 volumes of an antiprotease buffer containing 0.005M Tris potassium chloride, 0.12M sodium chloride, 0.05M Tris pH 7.5, 0.025 Units/ml aprotinin, 0.05 μg/m pepstatin, 2×10^-5 bacitracin, 3 mM ethylenediaminetetraacetic acid and 1.0 mM ethyleneglycol-bis (β-aminoethylether)N,N'-tetra-acetic acid. […] All procedures were conducted at 0° C. using plastic laboratory-ware throughout the platelet membrane preparation. Platelets were resuspended in 20 volumes of buffer and sonicated 3 times using 10 second bursts of a Branson sonifier (cell disrupter 350) at setting 6 (standard 3/4 inch horn), keeping the sample on ice throughout the procedure. Platelet membranes were then washed twice at 18,000×G for 20 minutes with 50 volumes of the antiprotease buffer and resuspended to 3.0 mg. protein/ml using the Bradford protein analysis with bovine gamma globulin as standard. Membranes were used immediately or stored frozen in liquid nitrogen.\nThe displacement of 3H-imipramine binding to human platelet membranes was performed essentially as described by Paul, S. M., et al., Life Sci., 953 (1980) with the following modifications. Membranes (0.3 mg protein) were suspended in antiprotease buffer with both […] 3H-imipramine (New England Nuclear) and displacing drug or buffer in a total volume of 250 #1 in glass test tubes. Samples were incubated for 90 minutes at 0° C., then diluted to 5 ml in 0.12M sodium chloride, 0.005M potassium chloride, 0.05M Tris pH 7.5 (wash buffer) and immediately filtered through GF/B Whatman Filters and washed twice with 5 ml of wash buffer. Filters were counted in a liquid scintillation counter after addition of Beckman HP Scintillant.\nNon-specific binding of 3H-imipramine was defined as that fraction (generally 35%) of radioactivity that was not displaced by 10 μM desmethylimipramine. Specific binding was determined by subtraction of this non-specific level from values for total 3H-imipramine binding which were measured by incubating 3H-imipramine in the absence of displacing drug. Compounds were tested in duplicate test tubes at a concentration of 10 μM. Compounds which inhibited binding by more than 50% were considered to be active."}},
  "note": "Structures can show the parent of a compound that is named as a salt.",
  "data": [
    {"smiles": "COc1cccc(CN2CCN(CC(=O)N3CC=C(c4cccc(C(F)(F)F)c4)n4ncc(C#N)c43)CC2)c1.Cl.Cl", "note": "[Example 79, 4,5-Dihydro-4-[[4-[(3-methoxyphenyl)methyl]-1-piperazinyl]acetyl]-7-[3-(trifluoromethyl)phenyl]pyrazolo[1,5-a]pyrimidine-3-carbonitrile, dihydrochloride]", "values": [
      {"measurement": "Result (protection against tetrabenazine-induced depression)", "setting": "[1]", "value": "Active"}
    ]},
    {"smiles": "CN1CCN(CC(=O)N2CC=C(c3cccc(C(F)(F)F)c3)n3ncc(C#N)c32)CC1", "note": "[Example 77, 4,5-Dihydro-4-[(4-methyl-1-piperazinyl)acetyl]-7-[3-(trifluoromethyl)phenyl]pyrazolo[1,5-a]-pyrimidine-3-carbonitrile. dihydrochloride]", "values": [
      {"measurement": "Result (No. of shocks per 3 min.)", "setting": "rats", "value": 17.4, "unit": "shocks per 3 min."}
    ]},
    {"smiles": "N#Cc1cnn2c1N(C(=O)CN1CCN(Cc3ccccc3)CC1)CC=C2c1cccc(C(F)(F)F)c1", "note": "[Example 17, 4,5-Dihydro-4-[[4-(phenylmethyl)-1-piperazinyl]acetyl]-7-[3-(trifluoromethyl)phenyl]pyrazolo[1,5-a]pyrimidine-3-carbonitrile]", "values": [
      {"measurement": "% Inhibition (3H-benzodiazepine binding)", "setting": "[2]", "value": 17, "unit": "%"},
      {"measurement": "MABP/mmHg (mean arterial blood pressure)", "setting": "[3]", "value": 120, "unit": "mmHg"},
      {"measurement": "% Improvement", "setting": "[4]; 100 mg/kg", "value": 65, "unit": "%"},
      {"measurement": "% Improvement", "setting": "[4]; 200 mg/kg", "value": 93, "unit": "%"},
      {"measurement": "Result (protection against tetrabenazine-induced depression)", "setting": "[1]", "value": "Active"},
      {"measurement": "% Survivors", "setting": "[5]; 100 mg/kg", "value": 48, "unit": "%"},
      {"measurement": "responders at 10 mg/kg", "setting": "[5]; Mus musculus, ip, 5 min, 10 mg/kg, read-out: % Survivors", "value": 40, "unit": "%"}
    ]},
    {"smiles": "CC1=C(c2ccc(Cl)cc2)n2ncc(C#N)c2N(C(=O)CN2CCN(Cc3cccc(Cl)c3)CC2)C1", "note": "[Example 133, 7-(4-Chlorophenyl)-4-[[4-[(3-chlorophenyl)methyl]-1-piperazinyl]acetyl]-4,5-dihydro-6-methylpyrazolo[1,5-a]pyrimidine-3-carbonitrile. dihydrochloride]", "values": [
      {"measurement": "% Improvement", "setting": "[4]; 10 mg/kg", "value": 66, "unit": "%"},
      {"measurement": "responders at 100 mg/kg", "setting": "[5]; Mus musculus, ip, 5 min, 100 mg/kg, read-out: % Survivors", "value": 62, "unit": "%"},
      {"measurement": "responders at 200 mg/kg", "setting": "[5]; Mus musculus, ip, 5 min, 200 mg/kg, read-out: % Survivors", "value": 73, "unit": "%"}
    ]},
    {"smiles": "N#Cc1cnn2c1N(C(=O)CN1CCN(Cc3ccc4c(c3)OCO4)CC1)CC=C2c1cccc(C(F)(F)F)c1", "note": "[Example 23, 4-[[4-(1,3-Benzodioxol-5-ylmethyl)-1-piperazinyl]acetyl]-4,5-dihydro-7-[3-(trifluoromethyl)phenyl]pyrazolo[1,5-a]pyrimidine-3-carbonitrile]", "values": [
      {"measurement": "Result (protection against tetrabenazine-induced depression)", "setting": "[1]", "value": "Active"},
      {"measurement": "inhibition at 10 µM", "setting": "[6]", "value": 81, "unit": "%"}
    ]},
    {"smiles": "COc1cccc(CN2CCN(CC(=O)N3CC=C(c4cccc(C(F)(F)F)c4)n4ncc(C#N)c43)CC2)c1", "note": "[Example 20, 4,5-Dihydro-4-[[4-[(3-methoxyphenyl)methyl]-1-piperazinyl]acetyl]-7-[3-(trifluoromethyl)phenyl]pyrazolo[1,5-a]pyrimidine-3-carbonitrile]", "values": [
      {"measurement": "Result (protection against tetrabenazine-induced depression)", "setting": "[1]", "value": "Active"},
      {"measurement": "inhibition at 10 µM", "setting": "[6]", "value": 78, "unit": "%"}
    ]},
    {"smiles": "Cl.N#Cc1cnn2c1N(C(=O)CN1CCN(Cc3ccccc3)CC1)CC=C2c1cccc(C(F)(F)F)c1", "note": "[Example 94, 4,5-Dihydro-4-[[4-(phenylmethyl)-1-piperazinyl]acetyl]-7-[3-(trifluoromethyl)phenyl]pyrazolo[1,5-a]pyrimidine-3-carbonitrile, hydrochloride]", "values": [
      {"measurement": "% Improvement", "setting": "[4]; 10 mg/kg", "value": 30, "unit": "%"},
      {"measurement": "% Survivors", "setting": "[5]; 100 mg/kg", "value": 83, "unit": "%"}
    ]},
    {"smiles": "N#Cc1cnn2c1N(C(=O)CN1CCN(CCC3CCCCC3)CC1)CC=C2c1cccc(C(F)(F)F)c1", "note": "[Example 41, 4-[[4-(2-Cyclohexylethyl)-1-piperazinyl]acetyl]-4,5-dihydro-7-[3-(trifluoromethyl)phenyl]pyrazolo[1,5-a]pyrimidine-3-carbonitrile]", "values": [
      {"measurement": "Result (No. of shocks per 3 min.)", "setting": "rats", "value": 18.0, "unit": "shocks per 3 min."}
    ]}
  ]
}
